In US20230054563A1, “COMPOSITION AND METHODS OF MANUFACTURE” (Phoenix Eagle Company Pty Ltd, priority 2019, published 2023):
Entries after “also recorded” stand apart in the source; their conditions may differ.

Assays:
[1] = system: active serine protease in OPAL B filtrate; assay: Serine protease reactivity probe, SDS PAGE western blotting of OPAL B filtrate; format: biochemical, Carica papaya
From the text: To establish which of the different bands corresponded to a proteolytically active form of subtilase in the OPAL B filtrate, we used a reactivity probe, which specifically labels active serine proteases via a fluorosulfonate group linked to biotin. This reactivity probe can then be visualized on a regular SDS PAGE gel via western blotting technique, using streptavidin-conjugated enzymes such as alkaline phosphatase. Using this technique allowed the visualization of the active serine protease band inhibited by AEBSF treatment at around 50 kDa as shown in FIG. 11.

[2] = system: cysteine protease(s) and serine protease(s) in OPAL B filtrate; assay: Overlay zymography of OPAL B filtrate with L-BApNA membrane, with or without inhibitors; format: biochemical, Carica papaya; conditions: inhibitor on nitrocellulose membrane; upper band cysteine, lower band serine protease(s)
Description: Overlay-zymography was carried out according to the procedure in Vinokurov et al. (2005) with some modifications (FIG. 1). Briefly, a nitrocellulose membrane was soaked in a 1.2 mg/mL L-BApNA solution in water. The membrane was subsequently left to air dry for 5 minutes and then laid on top of the native PAGE gel after running the samples through, which were slightly soaked in their respective running buffers. Two additional experiments were carried out in which membranes were soaked in […] R-alanine, 0.14 M acetic acid, pH 4.3, with either 10 mM DTT or 25 mM cysteine. All zymographies were then incubated in a closed chamber at 37° C. for 30-60 min. The membrane was removed and again left to dry for 5 minutes and the p-nitroaniline was visualized by diazotization.
Diazotization was performed by following the protocol detailed in Hosseininaveh et al. (2009). […]
OPAL B filtrate appears to be a complex mixture of many proteins. Therefore, to individually visualize the protease activities that were detected by spectrophotometry assays, we used a technique called overlay zymography. […]

[3] = system: proteolytic activity of OPAL B filtrate (cysteine and serine proteases); assay: Effect of protease inhibitors on L-BApNA proteolytic activity of OPAL B filtrate; format: biochemical, Carica papaya; conditions: inhibitor added to OPAL B filtrate
Description: (§1) A 1.5 mM stock solution of L-BApNA (B-3133 sigma) was prepared by dissolving 63 mg of L-BApNA in 1.5 ml dimethyl sulfoxide (DMSO), and then made up to 100 ml with water. Hydrolysis of the L-BApNA at the bond between the arginine and the p-nitroaniline moieties releases the chromophore p-nitroaniline, which can be detected by spectroscopy at an absorbance of 410 nm in International Units (IU). IU is defined as the amount of enzyme that causes an increase in absorbance of 0.01 units/min under excess substrate conditions (zero order kinetics). Solids specific activity is expressed in IU/mg, while in the case of liquid formulations, the activity is expressed in IU/mL.
(§2) We therefore previously concluded that the protease activity in OPAL A is essentially due only to the presence of active cysteine proteases. To determine the effect of omitting the heat treatment step, the protease activity in both OPAL A and OPAL B filtrates was tested using an L-BApNA assay. After 10 minutes, E-64 inhibitor was added.
To better understand the non-thiol dependent or non-cysteine proteases in the OPAL B filtrate, enzymatic assays were carried out initially using a Protease Inhibitor Cocktail (PIC) (sigma P2714), containing all the essential protease inhibitors (see Table 3).

[4] = system: cysteine protease activity of OPAL A; assay: Effect of E-64 on protease activity of OPAL A; format: biochemical, Carica papaya; conditions: previously established, unpublished data
Description: as §2

[5] = L-BApNA proteolytic activity assay (A410); format: biochemical
Description: as §1
To determine the optimal substrate concentration to maintain zero order kinetics throughout experiments, a series of titration runs were carried out with a range of substrate concentrations. The minimum concentration thus found is […] or 1:6 dilution of the stock 1.5 mM solution. […] Phosphate buffer at pH 6 was used in the L-BApNA assays because it gave the highest enzymatic activity reading compared to other buffers.
Hydrolysis of L-BApNA in the presence of protease, at the bond between the arginine and p-nitroaniline moieties, releases the chromophore p-nitroaniline, which can then be detected by spectroscopy at a wavelength of 410 nm. […]

Molecule | effect on active serine protease band at around 50 kDa labelled by reactivity probe [1] | inhibition of zymography bands of OPAL B [2] | inhibition of L-BApNA proteolytic activity of OPAL B filtrate [3] | inhibition of cysteine protease activity of OPAL A [4] | activity of pure latex papain [5]
NCCc1ccc(S(=O)(=O)F)cc1 [AEBSF] | inhibited | inhibition of lower band | able to halt proteolytic activity | – | –
CC(C)C[C@H](NC(=O)[C@H]1C[C@@H]1C(=O)O)C(=O)NCCCCNC(=N)N [E-64, (1S,2S)-2-(((S)-1-((4-Guanidinobutyl)amino)-4-methyl-1-oxopentan-2-yl)carbamoyl) cyclopropane carboxylic acid] | – | complete inhibition of upper band | did not result in complete inhibition of activity; also recorded: able to halt proteolytic activity | essentially abolished | –
pure latex papain: Pure latex papain, reference for specific L-BApNA activity (protein, UniProt P00784 134-345, looked up) Papain: IPEYVDWRQKGAVTPVKNQGSCGSCWAFSAVVTIEGIIKIRTGNLNEYSEQELLDCDRRSYGCNGGYPWSALQLVAQYGIHYRNTYPYEGVQRYCRSREKGPYAAKTDGVRQVQPYNEGALLYSIANQPVSVVLEAAGKDFQLYRGGIFVGPCGNKVDHAVAAVGYGPNYILIKNSWGTGWGENGYIRIKRGTGNSYGVCGLYTSSFYPVKN | – | – | – | – | around 10 IU/mg
